Reference: US11434194B2, “Amorphous form of vilanterol trifenatate and processes for the preparation thereof” (Hovione Scientia Limited, priority 2017, dated 2022)

Assays:
Type in all cases: physicochemical
[1] = Dynamic vapour sorption (DVS) analysis / kinetic moisture sorption, hygroscopicity; conditions: for Change In Mass (%) Desorption / Change In Mass (%) Hysteresis / Change In Mass (%) Sorption: 25° C.
Description: The values in the table are weight % variations that result from the use of the European Pharmacopoeia equation provided below. The hygroscopicity value is indicated from the sorption row at 80% RH of cycle 1.
The sample was subjected to DVS measuring using SMS-DVS intrinsic. The kinetic moisture sorption measurement was performed at 25° C. and in a RH % range described in the following: • From 40% RH to 90% RH • Form 90% RH to 0% RH • From 0% RH to 90% RH • From 90% RH to 0% RH
The sample was analyzed by XRPD after the analysis.
The hygroscopicity was calculated using the following equation: % Weight Change=[(W2−W1)/W1]*100, (1) wherein W1 is the weight of the sample at the start of the experiment (25° C. and 40% RH), and W2 is the weight of the sample at 25° C. and 80% RH in the first absorption cycle.

[2] = Visual solubility in differing solvents (European Pharmacopeia 6.0 section 5.11)
Description: Visual solubility of the amorphous form of the invention in differing solvents was assessed according to the procedure described in the European Pharmacopeia 6.0 section 5.11. p. 659 (see corresponding SI dissolution ranges in Table 2), and compared with that for Form 1. The following method was used: Dissolving procedure: the compound was shaken vigorously for 1 min and placed in a constant temperature device for 15 min at 25.0±0.5° C. If the compound was not completely dissolved, the shaking was repeated for 1 min and the tube placed in a constant temperature device for 15 min. Method: 50 mg of compound was weighed in a stoppered tube, 0.05 mL of the solvent added and the Dissolving Procedure (see above) followed. If the compound was completely dissolved, it was defined very soluble. If the compound was not completely dissolved, a further 0.45 mL of the solvent was added and the Dissolving Procedure (see above) followed. […] If the compound was still not completely dissolved, still further 1.0 mL of the solvent was added and the Dissolving Procedure (see above) followed. If the compound was completely dissolved, it was defined as soluble. If the compound was still not completely dissolved, another 3.5 mL of the solvent was added and the Dissolving Procedure (see above) followed. […] If the compound was still not completely dissolved, the compound was slightly soluble or very slightly soluble. In this case, the suspension was heated up to the boiling point (max 80° C.) under stirring to verify the solubility at high temperature. The hot solution was afterwards cooled to room temperature to observe whether the compound precipitates. If the compound at room, temperature was completely dissolved, it is soluble at high temperature. [table]

[3] = Solid-state storage stability (XRPD pattern, HPLC chromatogram)
Description: Such conditions reflect conditions similar to those in which the current medicaments (mentioned above) may be stored.
HPLC analysis was conducted using a waters system under the following conditions:
X-ray powder patterns were recorded using the PANalytical X'Pert PRO X-ray diffraction system equipped with a PW3373/00 Cu LFF DK184511 X-Ray tube and a X'Celerator RTMS (Real Time Multiple Strip) detector under the following conditions: […]

Structure (SMILES): OCc1cc([C@@H](O)CNCCCCCCOCCOCc2c(Cl)cccc2Cl)ccc1O [amorphous vilanterol trifenatate, 4-((1R)-2-((6-(2-((2,6-Dichlorophenyl)methoxy)ethoxy)-hexyl)amino)-1-hydroxyethyl)-2-(hydroxymethyl)phenol triphenylacetate]
- mass increase (dynamic vapour sorption analysis; hygroscopicity value) ([1]; 80% RH at 25° C., sorption, cycle 1): 1.34%
- hygroscopicity classification (European Pharmacopeia version 7) ([1]; % weight change from 40% RH to 80% RH at 25° C., first absorption cycle): slightly hygroscopic
- Change In Mass (%) Desorption ([1]; Cycle 1, target RH 0.0%): 1.186%
- Change In Mass (%) Desorption ([1]; Cycle 1, target RH 10.0%): 1.224%
- Change In Mass (%) Desorption ([1]; Cycle 1, target RH 20.0%): 1.257%
- Change In Mass (%) Desorption ([1]; Cycle 1, target RH 30.0%): 1.298%
- Change In Mass (%) Desorption ([1]; Cycle 1, target RH 40.0%): 1.333%
- Change In Mass (%) Hysteresis ([1]; Cycle 1, target RH 40.0%): 1.332%
- Change In Mass (%) Sorption ([1]; Cycle 1, target RH 40.0%): 0.001%
- Change In Mass (%) Desorption ([1]; Cycle 1, target RH 50.0%): 1.368%
- Change In Mass (%) Hysteresis ([1]; Cycle 1, target RH 50.0%): 1.101%
- Change In Mass (%) Sorption ([1]; Cycle 1, target RH 50.0%): 0.267%
- Change In Mass (%) Desorption ([1]; Cycle 1, target RH 60.0%): 1.401%
- Change In Mass (%) Hysteresis ([1]; Cycle 1, target RH 60.0%): 0.784%
- Change In Mass (%) Sorption ([1]; Cycle 1, target RH 60.0%): 0.618%
- Change In Mass (%) Desorption ([1]; Cycle 1, target RH 70.0%): 1.437%
- Change In Mass (%) Hysteresis ([1]; Cycle 1, target RH 70.0%): 0.423%
- Change In Mass (%) Sorption ([1]; Cycle 1, target RH 70.0%): 1.013%
- Change In Mass (%) Desorption ([1]; Cycle 1, target RH 80.0%): 1.474%
- Change In Mass (%) Hysteresis ([1]; Cycle 1, target RH 80.0%): 0.131%
- Change In Mass (%) Sorption ([1]; Cycle 1, target RH 80.0%): 1.344%
- Change In Mass (%) Desorption ([1]; Cycle 1, target RH 90.0%): 1.516%
- Change In Mass (%) Sorption ([1]; Cycle 1, target RH 90.0%): 1.516%
- Change In Mass (%) Desorption ([1]; Cycle 2, target RH 0.0%): 1.063%
- Change In Mass (%) Sorption ([1]; Cycle 2, target RH 0.0%): 1.186%
- Change In Mass (%) Desorption ([1]; Cycle 2, target RH 10.0%): 1.186%
- Change In Mass (%) Hysteresis ([1]; Cycle 2, target RH 10.0%): 0.006%
- Change In Mass (%) Sorption ([1]; Cycle 2, target RH 10.0%): 1.180%
- Change In Mass (%) Desorption ([1]; Cycle 2, target RH 20.0%): 1.214%
- Change In Mass (%) Hysteresis ([1]; Cycle 2, target RH 20.0%): 0.035%
- Change In Mass (%) Sorption ([1]; Cycle 2, target RH 20.0%): 1.179%
- Change In Mass (%) Desorption ([1]; Cycle 2, target RH 30.0%): 1.243%
- Change In Mass (%) Hysteresis ([1]; Cycle 2, target RH 30.0%): 0.061%
- Change In Mass (%) Sorption ([1]; Cycle 2, target RH 30.0%): 1.182%
- Change In Mass (%) Desorption ([1]; Cycle 2, target RH 40.0%): 1.269%
- Change In Mass (%) Hysteresis ([1]; Cycle 2, target RH 40.0%): 0.079%
- Change In Mass (%) Sorption ([1]; Cycle 2, target RH 40.0%): 1.189%
- Change In Mass (%) Desorption ([1]; Cycle 2, target RH 50.0%): 1.294%
- Change In Mass (%) Hysteresis ([1]; Cycle 2, target RH 50.0%): 0.090%
- Change In Mass (%) Sorption ([1]; Cycle 2, target RH 50.0%): 1.205%
- Change In Mass (%) Desorption ([1]; Cycle 2, target RH 60.0%): 1.320%
- Change In Mass (%) Hysteresis ([1]; Cycle 2, target RH 60.0%): 0.093%
- Change In Mass (%) Sorption ([1]; Cycle 2, target RH 60.0%): 1.228%
- Change In Mass (%) Desorption ([1]; Cycle 2, target RH 70.0%): 1.345%
- Change In Mass (%) Hysteresis ([1]; Cycle 2, target RH 70.0%): 0.084%
- Change In Mass (%) Sorption ([1]; Cycle 2, target RH 70.0%): 1.262%
- Change In Mass (%) Desorption ([1]; Cycle 2, target RH 80.0%): 1.369%
- Change In Mass (%) Hysteresis ([1]; Cycle 2, target RH 80.0%): 0.061%
- Change In Mass (%) Sorption ([1]; Cycle 2, target RH 80.0%): 1.308%
- Change In Mass (%) Desorption ([1]; Cycle 2, target RH 90.0%): 1.393%
- Change In Mass (%) Sorption ([1]; Cycle 2, target RH 90.0%): 1.393%
- visual solubility ([2]; 1,4-dioxane at 25° C., listed as amorphous of vilanterol trifenatate): soluble
- visual solubility ([2]; ethanol at 50° C.): sparingly soluble
- XRPD patterns before and after exposure ([3]; 60% RH at 25° C. (7 days)): unchanged
- time stable on storage (XRPD pattern and HPLC chromatograms remained the same) ([3]; room temperature): at least 5 months

Structure (SMILES): OCc1cc([C@@H](O)CNCCCCCCOCCOCc2c(Cl)cccc2Cl)ccc1O [Form I, 4-((1R)-2-((6-(2-((2,6-Dichlorophenyl)methoxy)ethoxy)-hexyl)amino)-1-hydroxyethyl)-2-(hydroxymethyl)phenol triphenylacetate]
- visual solubility ([2]; 1,4-dioxane at 25° C.): freely soluble
- visual solubility ([2]; THF at 25° C.): freely soluble
- visual solubility ([2]; ethanol at 25° C.): sparingly soluble
- visual solubility ([2]; methanol at 25° C.): soluble
